Laboratory results as given in ChEMBL document CHEMBL1201862, “PubChem BioAssay data set” (2004).
Active and inactive are the calls of the source.

What was measured:
[1] = Trypanosoma cruzi growth suppression in host cells – NIH3T3 host cells, beta-gal luminescence, confirmation (AID 2044); format: functional, cell-based;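 note: intracellular parasites grown in NIH/3T3 mouse fibroblasts as host cells; luminescent beta-galactosidase reporter signal from transgenic T. cruzi replicating inside host cells; inhibitors lower the luminescence signal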
[2] = cAMP pathway inhibition in counterscreen cell line – TR-FRET cAMP detection, counter-screen for MC4R biased antagonist project, dose response (AID 602305); format: functional, cell-based;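 note: U2OS cells stimulated with forskolin near its EC80 as the cAMP inducer; potency is for inhibition of forskolin-stimulated cAMP signaling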
[3] = viability loss in HEK293 kidney cells – cell-based, cherry-picks, set 5, cytotoxicity control, dose response (AID 1053117); format: functional
[4] = NIH3T3 cell viability loss – ATP luminescence, mouse fibroblasts, counter-screen, dose response (AID 2010); format: functional, cell-based;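 note: cells exposed to compound for about 90 hours before reading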
Melanocortin receptor 4 = Melanocortin receptor 4 (Homo sapiens, UniProt P32245); test: inhibitors of MC4R cAMP signaling – cell-based, TR-FRET, biased antagonists, dose response (AID 602298); format: functional;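 note: antagonist potency against agonist-stimulated cAMP production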
Chain of Melanocortin receptor 4 (P32245 whole entry): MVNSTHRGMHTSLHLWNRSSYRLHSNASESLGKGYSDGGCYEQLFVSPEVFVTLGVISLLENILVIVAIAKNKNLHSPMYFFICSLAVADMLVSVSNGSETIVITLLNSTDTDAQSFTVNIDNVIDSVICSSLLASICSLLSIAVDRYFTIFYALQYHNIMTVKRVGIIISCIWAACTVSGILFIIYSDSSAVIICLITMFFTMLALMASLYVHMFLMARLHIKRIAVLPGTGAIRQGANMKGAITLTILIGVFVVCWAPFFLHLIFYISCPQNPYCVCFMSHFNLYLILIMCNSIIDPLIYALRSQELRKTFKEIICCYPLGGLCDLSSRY

[5] = blockers of FN fibrillogenesis by fibroblasts – AH1F cells, Alexa488-FN fluorescence, cherry-picks, dose response (AID 1035475); format: functional, cell-based
[6] = molecular target: T1, Type-1 angiotensin II receptor (Homo sapiens, UniProt P30556); test: antagonism of angiotensin II type 1 receptor – cell-based, uHTS hits, selectivity assay for APJ receptor antagonist project, dose response (AID 463214); format: functional;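 note: antagonist potency against angiotensin II stimulated AT1 response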
T1 sequence (P30556 whole entry): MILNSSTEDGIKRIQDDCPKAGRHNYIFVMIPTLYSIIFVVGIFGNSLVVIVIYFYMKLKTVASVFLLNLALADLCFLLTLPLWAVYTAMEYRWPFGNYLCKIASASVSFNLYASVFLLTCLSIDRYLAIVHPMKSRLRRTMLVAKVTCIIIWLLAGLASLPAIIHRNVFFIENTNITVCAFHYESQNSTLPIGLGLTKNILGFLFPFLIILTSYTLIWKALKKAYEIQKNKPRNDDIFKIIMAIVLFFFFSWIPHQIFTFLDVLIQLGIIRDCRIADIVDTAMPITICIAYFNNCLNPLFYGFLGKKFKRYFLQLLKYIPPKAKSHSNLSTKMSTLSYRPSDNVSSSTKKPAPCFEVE

Paired box protein Pax-8 = Paired box protein Pax-8 (Homo sapiens, UniProt Q06710); test: PAX8 transcriptional activity inhibition in RMG-I – RMG-I cells, luciferase, cherry-pick, dose response (AID 687027); format: functional, cell-based;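 note: luciferase reporter driven by Pax8 target thyroperoxidase promoter measured by SteadyGlo luminescence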
Chain of Paired box protein Pax-8 (Q06710 whole entry): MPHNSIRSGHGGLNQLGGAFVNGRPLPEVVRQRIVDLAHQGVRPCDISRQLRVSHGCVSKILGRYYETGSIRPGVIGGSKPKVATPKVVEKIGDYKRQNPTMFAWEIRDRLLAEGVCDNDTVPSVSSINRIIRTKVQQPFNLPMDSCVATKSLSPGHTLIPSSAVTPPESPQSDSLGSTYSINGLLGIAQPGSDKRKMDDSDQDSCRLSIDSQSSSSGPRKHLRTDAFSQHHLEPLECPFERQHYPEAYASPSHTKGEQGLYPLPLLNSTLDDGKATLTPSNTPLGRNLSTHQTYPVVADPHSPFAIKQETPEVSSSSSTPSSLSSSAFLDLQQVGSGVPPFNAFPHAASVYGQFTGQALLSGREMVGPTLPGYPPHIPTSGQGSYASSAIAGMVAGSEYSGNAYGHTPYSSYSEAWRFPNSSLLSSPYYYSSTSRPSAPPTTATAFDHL

[7] = molecular target: T2, Replicative DNA helicase DnaB (Mycobacterium tuberculosis, UniProt P9WMR3); test: DnaB intein splicing inhibitors, dose response, biochemical, cell-free fluorescence (AID 449749); format: functional
T2 sequence (P9WMR3 whole entry): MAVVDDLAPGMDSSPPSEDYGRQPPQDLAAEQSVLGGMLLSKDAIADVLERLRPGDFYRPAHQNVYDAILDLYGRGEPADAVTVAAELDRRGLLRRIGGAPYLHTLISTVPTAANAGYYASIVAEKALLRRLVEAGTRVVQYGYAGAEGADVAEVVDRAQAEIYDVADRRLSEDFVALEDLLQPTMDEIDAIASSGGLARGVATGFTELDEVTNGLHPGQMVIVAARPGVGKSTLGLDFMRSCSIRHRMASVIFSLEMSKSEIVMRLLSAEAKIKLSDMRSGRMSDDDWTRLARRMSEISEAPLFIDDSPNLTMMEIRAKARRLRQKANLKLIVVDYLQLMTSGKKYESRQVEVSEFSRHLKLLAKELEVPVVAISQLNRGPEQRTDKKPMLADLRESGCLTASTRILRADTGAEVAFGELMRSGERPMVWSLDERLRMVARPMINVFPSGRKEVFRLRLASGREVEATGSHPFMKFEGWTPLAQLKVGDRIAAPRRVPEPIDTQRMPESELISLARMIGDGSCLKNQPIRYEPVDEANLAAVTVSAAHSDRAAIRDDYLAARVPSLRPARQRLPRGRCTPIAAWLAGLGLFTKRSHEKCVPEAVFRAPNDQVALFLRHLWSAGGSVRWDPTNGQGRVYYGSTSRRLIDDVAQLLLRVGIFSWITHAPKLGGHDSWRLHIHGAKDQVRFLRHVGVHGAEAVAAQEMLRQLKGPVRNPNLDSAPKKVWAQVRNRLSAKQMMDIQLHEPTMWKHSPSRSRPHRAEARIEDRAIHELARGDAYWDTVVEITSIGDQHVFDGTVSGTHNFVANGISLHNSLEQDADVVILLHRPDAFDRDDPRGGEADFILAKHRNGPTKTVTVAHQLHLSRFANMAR

CHO = CHO cell viability loss, potency – luminescence, cytotoxicity control for TLR9-MyD88 binding inhibitor project, dose response (AID 588339); format: functional, cell-based, hamster; conditions: Cricetulus griseus;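 note: CHO cells stably coexpressing TLR9 and MyD88 fusions from primary screen; compound exposure lasted 48 hours before viability readout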
[8] = general cell-killing toxicity readout – plate reader, dry powder samples, cytotoxicity control for PAX8 inhibitor project, dose response (AID 743021); format: functional, cell-based
[9] = molecular target: T3, Heat shock factor protein 1 (Mus musculus, UniProt P38532); test: decrease of HSF1-responsive luciferase luminescence – cell-based, NIH3T3, dose retest, confirmation (AID 2382); format: functional;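 note: NIH3T3 fibroblasts with HSF1-driven luciferase reporter stressed by proteasome inhibitor MG132; luminescence from HSF1-driven luciferase expression after 8 hours of MG132 stress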
T3 sequence (P38532 whole entry): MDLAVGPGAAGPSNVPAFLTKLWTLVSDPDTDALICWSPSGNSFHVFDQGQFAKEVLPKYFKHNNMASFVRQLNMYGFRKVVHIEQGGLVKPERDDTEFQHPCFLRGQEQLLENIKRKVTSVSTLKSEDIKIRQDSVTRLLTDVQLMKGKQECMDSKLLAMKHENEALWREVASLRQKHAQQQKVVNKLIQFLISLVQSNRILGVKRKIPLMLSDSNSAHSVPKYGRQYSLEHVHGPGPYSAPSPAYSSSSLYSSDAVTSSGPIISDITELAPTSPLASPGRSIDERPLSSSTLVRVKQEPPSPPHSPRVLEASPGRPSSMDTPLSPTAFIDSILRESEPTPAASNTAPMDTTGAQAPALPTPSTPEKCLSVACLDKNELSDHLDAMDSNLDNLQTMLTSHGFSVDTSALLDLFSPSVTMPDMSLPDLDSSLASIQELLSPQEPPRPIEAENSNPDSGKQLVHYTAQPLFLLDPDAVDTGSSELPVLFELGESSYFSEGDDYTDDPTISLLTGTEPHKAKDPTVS

Large T antigen = Large T antigen (Simian virus 40, UniProt P03070); format: functional, Betapolyomavirus macacae;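 note: Confirmatory-stage PubChem screen for compounds that inhibit SV40 T antigen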
Chain of Large T antigen (P03070 whole entry): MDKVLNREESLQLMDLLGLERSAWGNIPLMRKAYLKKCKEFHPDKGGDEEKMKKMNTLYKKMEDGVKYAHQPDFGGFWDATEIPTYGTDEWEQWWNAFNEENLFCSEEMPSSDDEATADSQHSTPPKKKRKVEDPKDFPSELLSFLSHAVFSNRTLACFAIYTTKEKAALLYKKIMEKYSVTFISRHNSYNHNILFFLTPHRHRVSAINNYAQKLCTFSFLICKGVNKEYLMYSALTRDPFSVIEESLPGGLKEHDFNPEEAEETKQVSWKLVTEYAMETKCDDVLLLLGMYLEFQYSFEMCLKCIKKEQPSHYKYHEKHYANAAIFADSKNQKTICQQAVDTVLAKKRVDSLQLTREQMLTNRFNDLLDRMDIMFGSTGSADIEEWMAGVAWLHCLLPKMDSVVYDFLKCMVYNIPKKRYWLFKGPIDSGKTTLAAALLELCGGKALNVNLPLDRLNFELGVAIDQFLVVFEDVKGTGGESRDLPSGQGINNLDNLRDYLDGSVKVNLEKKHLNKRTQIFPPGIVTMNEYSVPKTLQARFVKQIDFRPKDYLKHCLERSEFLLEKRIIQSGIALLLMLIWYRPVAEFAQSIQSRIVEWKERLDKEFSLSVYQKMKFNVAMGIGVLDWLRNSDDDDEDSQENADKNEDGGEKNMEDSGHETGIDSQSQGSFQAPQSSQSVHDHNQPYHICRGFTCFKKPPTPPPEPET

INS1 = test: INS-1E survival protection against cytokine death – cell-based, luminescence, retest, dose response (AID 449756); format: functional; conditions: Rattus norvegicus;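 note: cell death triggered by IL-1 beta plus TNF-alpha plus IFN-gamma mixture; protective hits raise ATP signal compared with cytokine alone wells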
Beta Lactamase = Beta Lactamase (Pseudomonas aeruginosa, UniProt Q932Y6); test: BLA reporter interference, concentration series – BLA reporter cells, FRET fluorescence, artefact control for TLR9-MyD88 binding inhibitor project, dose response (AID 588341); format: cell-based;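 note: cell based assay in CHO-K1 cells stably expressing beta-lactamase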
Chain of Beta Lactamase (Q932Y6 whole entry): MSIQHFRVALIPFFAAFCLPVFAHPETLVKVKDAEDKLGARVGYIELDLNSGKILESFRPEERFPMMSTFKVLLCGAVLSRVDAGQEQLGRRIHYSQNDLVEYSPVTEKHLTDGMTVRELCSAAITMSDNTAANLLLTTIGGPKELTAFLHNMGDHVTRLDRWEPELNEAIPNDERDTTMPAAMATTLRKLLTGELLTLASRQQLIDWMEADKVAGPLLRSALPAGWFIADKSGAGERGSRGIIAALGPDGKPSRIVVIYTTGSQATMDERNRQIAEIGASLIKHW

Beta-galactosidase = Beta-galactosidase (Escherichia coli, UniProt Q8VNN2); test: PubChem AID 485352; format: functional
Chain of Beta-galactosidase (Q8VNN2 whole entry): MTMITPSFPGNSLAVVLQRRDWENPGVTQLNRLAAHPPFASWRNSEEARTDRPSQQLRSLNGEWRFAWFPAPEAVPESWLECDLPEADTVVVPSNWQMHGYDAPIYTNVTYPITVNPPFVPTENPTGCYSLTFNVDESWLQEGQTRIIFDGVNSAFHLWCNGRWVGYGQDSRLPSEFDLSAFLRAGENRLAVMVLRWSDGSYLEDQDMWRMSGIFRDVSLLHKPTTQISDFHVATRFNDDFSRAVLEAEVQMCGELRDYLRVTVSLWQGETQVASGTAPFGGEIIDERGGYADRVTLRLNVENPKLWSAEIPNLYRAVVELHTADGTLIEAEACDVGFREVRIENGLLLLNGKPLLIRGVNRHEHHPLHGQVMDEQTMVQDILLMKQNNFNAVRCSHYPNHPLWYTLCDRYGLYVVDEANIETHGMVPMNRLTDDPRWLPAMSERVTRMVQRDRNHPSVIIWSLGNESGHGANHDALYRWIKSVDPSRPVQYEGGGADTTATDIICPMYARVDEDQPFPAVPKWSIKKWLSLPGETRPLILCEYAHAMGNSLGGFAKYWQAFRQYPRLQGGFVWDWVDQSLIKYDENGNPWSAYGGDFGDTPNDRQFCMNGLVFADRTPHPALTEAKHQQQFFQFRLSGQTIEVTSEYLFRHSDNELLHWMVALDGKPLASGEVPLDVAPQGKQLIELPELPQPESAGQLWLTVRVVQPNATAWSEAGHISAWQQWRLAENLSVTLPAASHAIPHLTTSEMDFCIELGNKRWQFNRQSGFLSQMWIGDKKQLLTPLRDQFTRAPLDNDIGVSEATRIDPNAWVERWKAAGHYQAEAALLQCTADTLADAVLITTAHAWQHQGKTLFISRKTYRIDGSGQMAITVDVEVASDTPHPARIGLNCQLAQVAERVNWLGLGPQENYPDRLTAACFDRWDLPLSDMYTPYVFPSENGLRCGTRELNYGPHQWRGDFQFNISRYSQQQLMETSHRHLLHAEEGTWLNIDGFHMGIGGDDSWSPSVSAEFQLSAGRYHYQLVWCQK

Protein RecA = molecular target: T4, Protein RecA (Mycobacterium tuberculosis, UniProt P9WHJ3); test: Fluorescence Cell-Free Homogeneous Dose Retest to Identify Inhibitors of RecA-Intein Splicing Activity. [Related pubchem assays (depositor defined):AID2097, AID2223, AID489010, AID492950]; format: functional
T4 sequence (P9WHJ3 whole entry): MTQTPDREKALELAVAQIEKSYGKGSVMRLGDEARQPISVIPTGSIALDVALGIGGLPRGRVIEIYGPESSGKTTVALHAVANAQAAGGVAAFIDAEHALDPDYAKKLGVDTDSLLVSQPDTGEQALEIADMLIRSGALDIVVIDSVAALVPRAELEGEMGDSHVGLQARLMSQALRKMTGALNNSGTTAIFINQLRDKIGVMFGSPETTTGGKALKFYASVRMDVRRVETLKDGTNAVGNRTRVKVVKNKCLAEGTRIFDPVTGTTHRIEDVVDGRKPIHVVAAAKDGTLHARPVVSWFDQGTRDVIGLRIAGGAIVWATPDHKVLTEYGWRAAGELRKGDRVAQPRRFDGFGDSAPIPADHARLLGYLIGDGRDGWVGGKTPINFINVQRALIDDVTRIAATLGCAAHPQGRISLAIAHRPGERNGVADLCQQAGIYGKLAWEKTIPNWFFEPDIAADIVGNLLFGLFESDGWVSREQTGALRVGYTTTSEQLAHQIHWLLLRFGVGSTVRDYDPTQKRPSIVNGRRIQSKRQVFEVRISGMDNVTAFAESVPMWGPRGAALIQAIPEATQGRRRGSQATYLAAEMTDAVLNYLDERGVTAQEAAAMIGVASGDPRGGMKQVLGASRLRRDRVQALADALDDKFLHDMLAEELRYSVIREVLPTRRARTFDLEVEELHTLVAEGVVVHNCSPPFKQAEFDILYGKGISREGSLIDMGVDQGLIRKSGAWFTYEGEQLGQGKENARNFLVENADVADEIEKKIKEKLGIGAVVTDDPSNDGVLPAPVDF

[10] = viability loss in HepG2 hepatoma cells – cell-based, cherry-picks, set 5, cytotoxicity control, dose response (AID 1053118); format: functional
[11] = THP-1 cell cytotoxicity, dose response, cytotoxicity control for non-replicating M. tuberculosis project (AID 489025); format: functional
[12] = Luminescence Cell-Based Dose Response HTS to Identify Activators of Luciferase Translation or Activity in H4 […] Cells. [Related pubchem assays: 1829 (Project Summary), 1814 (Primary HTS)]; format: functional
[13] = COV434 cell viability loss – plate reader, dry powder, SA7, cytotoxicity control for PAX8 inhibitor project, dose response (AID 743145); format: functional, cell-based
[14] = OVCAR-3 cell viability loss – plate reader, dry powder samples, PAX8 inhibitor project, dose response (AID 743044); format: functional, cell-based
Genome polyprotein = Genome polyprotein (dengue virus type 2, UniProt P29990); test: flavivirus cap methylation enzyme inhibition – biochemical, confirmation dose response, primary screen (AID 588689); format: functional
Chain of Genome polyprotein (P29990 2492-3391 limits assumed): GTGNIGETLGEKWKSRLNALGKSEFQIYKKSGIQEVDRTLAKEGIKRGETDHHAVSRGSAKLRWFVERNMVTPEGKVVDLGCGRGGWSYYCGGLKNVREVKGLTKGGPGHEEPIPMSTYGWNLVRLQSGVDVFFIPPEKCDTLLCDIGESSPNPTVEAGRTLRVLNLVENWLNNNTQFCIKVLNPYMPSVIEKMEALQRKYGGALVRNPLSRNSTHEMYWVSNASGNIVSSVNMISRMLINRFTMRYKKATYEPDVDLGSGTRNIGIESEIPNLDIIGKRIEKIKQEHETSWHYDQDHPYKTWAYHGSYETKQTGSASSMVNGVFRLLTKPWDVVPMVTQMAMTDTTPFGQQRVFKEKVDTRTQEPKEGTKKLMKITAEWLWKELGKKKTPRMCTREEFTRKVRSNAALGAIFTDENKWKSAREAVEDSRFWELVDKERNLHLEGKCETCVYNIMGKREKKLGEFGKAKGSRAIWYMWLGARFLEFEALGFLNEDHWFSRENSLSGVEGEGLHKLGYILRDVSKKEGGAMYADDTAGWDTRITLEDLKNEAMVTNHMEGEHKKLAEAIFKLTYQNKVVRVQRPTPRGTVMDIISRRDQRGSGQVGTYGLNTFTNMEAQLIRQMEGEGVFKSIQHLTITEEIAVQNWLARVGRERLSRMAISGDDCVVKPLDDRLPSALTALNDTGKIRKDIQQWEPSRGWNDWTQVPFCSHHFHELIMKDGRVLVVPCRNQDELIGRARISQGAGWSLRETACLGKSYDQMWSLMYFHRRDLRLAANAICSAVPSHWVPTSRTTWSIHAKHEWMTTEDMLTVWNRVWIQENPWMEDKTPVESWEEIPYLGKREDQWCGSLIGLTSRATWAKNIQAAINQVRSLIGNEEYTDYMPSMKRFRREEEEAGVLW

[15] = PAX5 cellular inhibition readout – cell-based, plate reader, dry powder samples, selectivity assay for PAX8 inhibitor project, dose response (AID 743047); format: functional;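 note: HEK293 cells carrying a Pax5 driven CD19 promoter luciferase reporter; potency of inhibitors that lower reporter luminescence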
Vero = test: viability of Vero cells under compound – cytotoxicity control for flavivirus capping enzyme inhibitors (AID 588742); format: functional; conditions: Chlorocebus sabaeus
[16] = PAX8-dependent cell viability loss – plate reader, dry powder, dose response (AID 743049); format: functional, cell-based
[17] = OVCAR4 cell viability loss – plate reader, dry powder, SA11, cytotoxicity control for PAX8 inhibitor project, dose response (AID 743150); format: functional, cell-based; conditions: OVCAR-4
H4 = test: Luminescence Cell-Based Dose Response HTS to Identify Activators of 5'UTR Stem-Loop Driven Prion Protein mRNA Translation in H4 Neuroglioblastoma Cells. [Related pubchem assays: 1829 (Project Summary), 1814 (Primary HTS)]; format: functional; conditions: Homo sapiens
[18] = toxicity toward immortalized ovarian surface epithelium – cell-based, plate reader, dry powder samples, cytotoxicity control for PAX8 inhibitor project, dose response (AID 743045); format: functional
[19] = A2780 cell killing – plate reader, dry powder samples, cytotoxicity control, dose response (AID 743046); format: functional, cell-based
[20] = viability loss in THP-1 monocytes – THP-1 cells, cytotoxicity control for Vif-APOBEC3G degradation inhibitor project, dose response (AID 1117359); format: functional; conditions: THP-1
[21] = COV362 cell viability loss – plate reader, dry powder, SA12, cytotoxicity control for PAX8 inhibitor project, dose response (AID 743144); format: functional, cell-based
[22] = OV-90 cell viability loss – plate reader, dry powder, SA8, PAX8 inhibitor project, dose response (AID 743149); format: functional, cell-based
[23] = IGROV1 cell killing – plate reader, dry powder samples, PAX8 inhibitor project, dose response (AID 743043); format: functional, cell-based; conditions: IGROV-1
[24] = molecular target: T5, Long-chain-fatty-acid--AMP ligase FadD28 (Mycobacterium tuberculosis, UniProt P9WQ59); test: Fluorescence polarization aasay to screen for inhibitors that compete for the binding of FadD28 to a bisubstrate Measured in Biochemical System Using Plate Reader - 2147-01_Inhibitor_Dose_CherryPick_Activity.; format: functional, Mycobacterium tuberculosis H37Rv
T5 sequence (P9WQ59 whole entry): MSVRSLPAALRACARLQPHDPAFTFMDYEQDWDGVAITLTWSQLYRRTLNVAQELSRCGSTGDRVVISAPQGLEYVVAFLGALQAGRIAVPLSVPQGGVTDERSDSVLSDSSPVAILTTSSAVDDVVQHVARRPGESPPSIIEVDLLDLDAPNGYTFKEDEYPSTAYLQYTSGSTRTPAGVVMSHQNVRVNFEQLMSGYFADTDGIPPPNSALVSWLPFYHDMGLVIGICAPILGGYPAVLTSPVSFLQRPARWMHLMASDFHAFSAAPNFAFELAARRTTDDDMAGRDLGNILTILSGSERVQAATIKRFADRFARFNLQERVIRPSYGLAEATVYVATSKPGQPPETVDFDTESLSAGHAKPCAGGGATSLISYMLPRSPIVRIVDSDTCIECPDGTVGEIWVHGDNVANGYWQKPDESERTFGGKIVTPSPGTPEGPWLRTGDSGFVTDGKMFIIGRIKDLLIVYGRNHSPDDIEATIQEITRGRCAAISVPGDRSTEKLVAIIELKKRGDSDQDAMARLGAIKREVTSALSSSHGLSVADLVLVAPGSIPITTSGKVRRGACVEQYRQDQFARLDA

[25] = inhibitors acting on PAX2 in cells – cell-based, plate reader, dry powder samples, selectivity assay for PAX8 inhibitor project, dose response (AID 743048); format: functional;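 note: HEK293 cells carrying a WT1 promoter luciferase reporter driven by expressed Pax2; potency is for inhibition of Pax2 driven reporter signal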

CCS(=O)(=O)c1ncc(Cl)c(C(=O)Nc2ccc(S(=O)(=O)N3CCC(C)CC3)cc2)n1
active: EC50 [1] 1.72 µM | AC50 [3] 9.52 µM | EC50 [4] 4.05 µM | AC50 [5] 5.39 µM | IC50 [6] 6.11 µM | AC50 (Paired box protein Pax-8) 3.45 µM | AC50 [7] 1.13 µM | IC50 (CHO) 1.81 µM | AC50 [8] 29.3 µM | EC50 [9] 4.04 µM | IC50 (Large T antigen) 52.5 µM | AC50 (INS1) 4.66 µM | IC50 (Beta Lactamase) 8.61 µM | EC50 (Protein RecA) 0.889 µM | AC50 [10] 7.65 µM | CC50 [11] 34.7 µM
inactive: IC50 [2] > 64.6 µM | IC50 (Melanocortin receptor 4) > 64.6 µM | EC50 (Beta-galactosidase) > 40 µM

O=C(O)CCCN1C(=O)/C(=C\C(Cl)=C\c2ccccc2)SC1=S
active: AC50 [13] 27.9 µM | AC50 [14] 10.2 µM | IC50 (Genome polyprotein) 36.2 µM | AC50 [15] 13.2 µM | CC50 (Vero) 3.6 µM | AC50 [16] 16 µM | AC50 (Paired box protein Pax-8) 2.03 µM | AC50 [17] 31.8 µM | AC50 [7] 9.77 µM | AC50 [18] 22.9 µM | AC50 [19] 66.9 µM | CC50 [20] 6.87 µM | AC50 [21] 16 µM | EC50 (Protein RecA) 16.3 µM | AC50 [22] 18.4 µM | AC50 [23] 9.43 µM | AC50 [24] 29.7 µM | AC50 [25] 17.8 µM
> 120 µM (not active): EC50 [12] | EC50 (H4)
